# According to patent US9650339B2, “Inhibitors of histone demethylases” (Gilead Sciences, Inc., priority 2013, dated 2017):
# Experiments:
# KDM4C (JMJD2C) = molecular target: T1, KDM4C (JMJD2C) (Homo sapiens, UniProt Q9H3R0); assay: Histone lysine demethylase AlphaLISA assay, KDM4C; assay type: biochemical; settings: read-out: KDM4C HDME Inhibition IC50
# T1 sequence (Q9H3R0 1-349): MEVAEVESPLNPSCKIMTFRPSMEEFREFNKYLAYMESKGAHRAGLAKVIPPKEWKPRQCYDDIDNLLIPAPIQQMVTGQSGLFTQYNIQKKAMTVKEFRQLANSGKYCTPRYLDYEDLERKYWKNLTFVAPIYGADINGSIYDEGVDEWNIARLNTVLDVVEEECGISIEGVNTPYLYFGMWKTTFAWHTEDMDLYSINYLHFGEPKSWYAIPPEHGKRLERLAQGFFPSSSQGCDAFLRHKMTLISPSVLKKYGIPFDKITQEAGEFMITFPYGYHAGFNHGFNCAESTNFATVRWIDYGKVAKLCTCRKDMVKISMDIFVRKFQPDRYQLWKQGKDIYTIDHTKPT
# Outline: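 Steps: enzyme equilibrated 10 min in buffer; compounds in 3% DMSO solution added, 10 min; substrate mix added (peptide, 25 μM L-Asc, 10 μM α-KG), room temperature; acceptor beads, then streptavidin donor beads, dark incubations; plate read.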
# KDM4C = molecular target: T2, KDM4C (Homo sapiens, UniProt Q9H3R0); assay: Histone lysine demethylase immunofluorescence assay, U2OS cells transfected with KDM4C; assay type: cell-based; settings: U2OS cells transfected with pCMVHA KDM4C; mark detected H3K9me3; 20 hours
# T2 construct: Full length; host or cells: U2OS
# T2 sequence (Q9H3R0 1-1056): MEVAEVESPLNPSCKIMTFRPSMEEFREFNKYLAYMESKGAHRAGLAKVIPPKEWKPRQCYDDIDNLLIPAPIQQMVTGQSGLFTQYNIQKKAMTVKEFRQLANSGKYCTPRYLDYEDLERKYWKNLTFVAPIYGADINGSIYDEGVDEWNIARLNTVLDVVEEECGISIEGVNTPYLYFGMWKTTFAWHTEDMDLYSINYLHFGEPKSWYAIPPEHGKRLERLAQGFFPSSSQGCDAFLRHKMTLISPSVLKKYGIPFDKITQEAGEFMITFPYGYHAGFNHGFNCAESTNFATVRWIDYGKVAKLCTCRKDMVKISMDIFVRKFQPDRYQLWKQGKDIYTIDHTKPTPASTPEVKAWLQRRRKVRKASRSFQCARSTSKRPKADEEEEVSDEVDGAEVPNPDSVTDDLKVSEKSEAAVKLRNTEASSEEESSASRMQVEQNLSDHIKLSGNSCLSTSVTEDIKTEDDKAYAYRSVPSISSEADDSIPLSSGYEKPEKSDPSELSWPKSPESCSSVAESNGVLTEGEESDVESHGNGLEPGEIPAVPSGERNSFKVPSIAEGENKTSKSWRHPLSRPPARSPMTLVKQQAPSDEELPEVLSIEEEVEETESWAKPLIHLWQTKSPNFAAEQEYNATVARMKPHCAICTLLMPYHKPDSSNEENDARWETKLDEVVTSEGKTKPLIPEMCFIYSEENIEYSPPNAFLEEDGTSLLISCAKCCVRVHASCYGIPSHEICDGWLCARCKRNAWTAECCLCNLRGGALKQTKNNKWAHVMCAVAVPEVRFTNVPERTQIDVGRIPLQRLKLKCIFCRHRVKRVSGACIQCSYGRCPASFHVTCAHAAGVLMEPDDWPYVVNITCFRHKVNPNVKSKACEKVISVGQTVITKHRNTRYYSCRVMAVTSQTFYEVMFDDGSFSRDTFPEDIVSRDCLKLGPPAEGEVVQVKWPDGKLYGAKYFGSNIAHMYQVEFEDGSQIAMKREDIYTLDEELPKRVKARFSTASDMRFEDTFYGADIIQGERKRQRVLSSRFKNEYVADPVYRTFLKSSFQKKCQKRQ
# Experimental: U2OS cells were seeded 24 hours before transfection. Transfection was performed with Fugene HD transfection reagent as recommended by the manufacturer. 6 hours after transfection, the cells were harvested and seeded into multi well plates into media containing compound. The media used was DMEM containing 10% FBS and pen/strep. 20 hours after incubation of cells with compounds, the cells were washed in PBS, harvested by fixation with formaldehyde 4% aqueous solution, and washed in PBS. Subsequently, the cells were permeabilized in PBS with 0.2% Triton X-100 for. Blocking was performed in PBS with 0.2% Triton X-100 and 5% FBS. The cells were incubated with primary antibodies in blocking solution over night at 4° C. The primary antibodies used in the assays were HA.11 (Covance, MMS-101P) and the antibody detecting the mark specified in the table below. After incubation with primary antibodies, the cells were washed with PBS, incubated with secondary antibodies (Alexa fluor 594 goat anti rabbit IgG, Invitrogen, A11012; Alexa flour 488 donkey anti mouse IgG, Invitrogen, A21202) and Hoechst, (Sigma, 33342) in blocking solution, and washed again with PBS. Finally, PBS was added and high throughput imaging and analysis were performed by an IN Cell Analyzer 1000 (GE Healthcare). The robot software analyzed individual cells and divided these into HA+ (transfected cells) and HA− (non-transfected cells). The IC50 values were based on an average measure of the staining of the mark specified in the table below in the transfected cells.
# KDM7 (PHF8) = molecular target: T3, KDM7 (PHF8) (Homo sapiens, UniProt Q9UPP1); assay: Histone lysine demethylase AlphaLISA assay, KDM7; assay type: biochemical; settings: read-out: PHF8 HDME Inhibition IC50
# T3 construct: KDM7 (PHF8); BRIC; 1-1322; Bac
# T3 sequence (Q9UPP1 37-440 limits assumed): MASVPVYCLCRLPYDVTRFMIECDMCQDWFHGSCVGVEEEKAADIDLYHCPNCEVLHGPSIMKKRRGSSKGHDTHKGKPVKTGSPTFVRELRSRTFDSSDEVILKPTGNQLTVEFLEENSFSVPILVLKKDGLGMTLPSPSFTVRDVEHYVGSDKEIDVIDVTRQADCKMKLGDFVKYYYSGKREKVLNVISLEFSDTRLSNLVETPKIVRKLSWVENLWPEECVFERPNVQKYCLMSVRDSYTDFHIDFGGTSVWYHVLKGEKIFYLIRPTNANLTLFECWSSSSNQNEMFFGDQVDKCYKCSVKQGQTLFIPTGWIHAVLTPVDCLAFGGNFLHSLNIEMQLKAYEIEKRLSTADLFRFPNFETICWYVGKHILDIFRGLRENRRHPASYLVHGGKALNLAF
# Experimental: Assays are performed analogously to the protocol described by PerkinElmer (Roy et al. PerkinElmer Technical Note: AlphaLISA #12, April 2011)
# Enzymes are dissolved in enzyme buffer and incubated for 10 min before being added to 3% DMSO solutions of compounds in enzyme buffer. Incubated for another 10 minutes, before substrate solution is added and the reaction mixture is incubated at room temperature. 10 μL acceptor beads, suspended in Epigenetic Buffer (Perkin Elmer AL008) from stock, are added and the suspension is incubated in the dark at room temperature, before a suspension of streptavidin donor beads (Perkin Elmer 6760002) in Epigenetic Buffer is added. After incubation at room temperature in the dark the plates are read. […]
# BK9M2: Biotin-ARTKQTAR(KMe2)STGGKAPRKQ-NH2 (AnaSpec 64359)
# BK9M1: Biotin-ARTKQTAR(KMe1)STGGKAPRKQ-NH2 (AnaSpec 64358) […]
# Substrate Solution: Substrate, 25 μM L-Asc, and 10 μM α-KG in Buffer A.
IC50 (KDM4C (JMJD2C)),IC50 (KDM4C),IC50 (KDM7 (PHF8)),Compound
< 0.25 µM,0.25 to 2.5 µM,> 2.5 µM,CN(C)C(=O)CNCc1cc(/C=N\C2CC2)ccn1 [Compound 33]
> 2.5 µM,0.25 to 2.5 µM,> 2.5 µM,"CN(C)CCC/N=C/c1ccnc(CNCCCN(C)C)c1 [Compound 37, [3-(dimethylamino)propyl]-({4-[{[3-(dimethylamino)propyl]-imino}methyl]pyridin-2-yl}methyl)amine]"
0.25 to 2.5 µM,> 2.5 µM,> 2.5 µM,"CN(C)CCCNCc1cc(/C=N/CCN(C)C)ccn1 [Compound 38, ({4-[{[2-(dimethylamino)ethyl]-imino}methyl]pyridin-2-yl}methyl)[3-(dimethylamino)-propyl]amine]"
> 2.5 µM,> 2.5 µM,< 0.25 µM,"CCSCCNCc1cc(/C=N/C2CC2)ccn1 [Compound 39, N-{[2-({[2-(ethylsulfanyl)-ethyl]amino}methyl)pyridin-4-yl]methylidene}-cyclopropanamine]"
0.25 to 2.5 µM,0.25 to 2.5 µM,> 2.5 µM,"CN(CCCNCc1cc(/C=N/C2CC2)ccn1)Cc1ccccc1 [Compound 41, N-({2-[({3-[benzyl(methyl)amino]-propyl}amino)methyl]-pyridin-4-yl}methylidene)-cyclopropanamine]"
> 2.5 µM,0.25 to 2.5 µM,> 2.5 µM,"C(=N/C1CC1)/c1ccnc(CNCCCN2CCCC2)c1 [Compound 42, N-{[2-({[3-(pyrrolidin-1-yl)propyl]amino}-methyl)pyridin-4-yl]methylidene}-cyclopropanamine]"
< 0.25 µM,0.25 to 2.5 µM,0.25 to 2.5 µM,"CN(C)C/C=C/CNCc1cc(/C=N/C2CC2)ccn1 [Compound 43, N-{[2-({[(2E)-4-(dimethylamino)but-2-en-1-yl]amino}-methyl)pyridin-4-yl]methylidene}-cyclopropanamine]"
> 2.5 µM,0.25 to 2.5 µM,> 2.5 µM,"CN(C)CCCCNCc1cc(/C=N\C2CC2)ccn1 [Compound 45, N-{[2-({[4-(dimethylamino)butyl]-amino}methyl)-pyridin-4-yl]methylidene}-cyclopropanamine]"

# The next lines start with the molecule.
Compound,IC50 (KDM4C (JMJD2C)),IC50 (KDM4C),IC50 (KDM7 (PHF8))
"CCCNCc1cc(CNC2CC2)ccn1 [Compound 12, N-({2-[(propylamino)methyl]-pyridin-4-yl}methyl)-cyclopropanamine]",> 2.5 µM,> 2.5 µM,> 2.5 µM
"CN(C)C(=O)CNCc1cc(CNCC#N)ccn1 [Compound 13, 2-{[(4-{[(cyanomethyl)amino]-methyl}pyridin-2-yl)methyl]amino}-N,N-dimethylacetamide]",> 2.5 µM,0.25 to 2.5 µM,> 2.5 µM
"CN(C)C(=O)CNCc1cc(CNCCF)ccn1 [Compound 14, 2-{[(4-{[(2-fluoroethyl)amino]-methyl}pyridin-2-yl)methyl]amino}-N,N-dimethylacetamide]",0.25 to 2.5 µM,> 2.5 µM,> 2.5 µM
"CN(C)CCNCc1ccnc(CNCC(=O)N(C)C)c1 [Compound 15, 2-({[4-({[2-(dimethylamino)ethyl]-amino}methyl)pyridin-2-yl]methyl}amino)-N,N-dimethylacetamide]",0.25 to 2.5 µM,> 2.5 µM,> 2.5 µM
"CNCc1ccnc(CNCCCN(C)Cc2ccccc2)c1 [Compound 17, benzyl(methyl){3-[({4-[(methylamino)methyl]-pyridin-2-yl)methyl)-amino]propyl}-amine]",0.25 to 2.5 µM,> 2.5 µM,> 2.5 µM
"CN(C)CCNCc1cc(CNC(C#N)C2CC2)ccn1 (stereo not drawn) [Compound 21, 2-cyclopropyl-2-({[2-({[2-(dimethylamino)ethyl]-amino}methyl)pyridin-4-yl]methyl}amino)-acetonitrile]",> 2.5 µM,> 2.5 µM,> 2.5 µM
"CC(C#N)NCc1ccnc(CNCCCN(C)C)c1 (stereo not drawn) [Compound 22, 2-({[2-({[3-(dimethylamino)propyl]-amino}methyl)pyridin-4-yl]methyl}amino)-propanenitrile]",> 2.5 µM,> 2.5 µM,> 2.5 µM
"N#CCNCc1ccnc(CNCCCCN(Cc2ccccc2)C2CC2)c1 [Compound 23, 2-[({2-[({4-[benzyl(cyclopropyl)-amino]butyl}amino)-methyl]pyridin-4-yl}methyl)amino]-acetonitrile]",> 2.5 µM,> 2.5 µM,> 2.5 µM
"CNC(C#N)c1ccnc(CNCCCN(C)C)c1 (stereo not drawn) [Compound 24, 2-[2-({[3-(dimethylamino)propyl]-amino}methyl)pyridin-4-yl]-2-(methylamino)-acetonitrile]",0.25 to 2.5 µM,> 2.5 µM,> 2.5 µM
"CN(C)C(=O)CNCc1cc(/C=N/CCCc2ccccc2)ccn1 [Compound 34, N,N-dimethyl-2-[({4-[[(3-phenylpropyl)imino]-methyl]pyridin-2-yl}methyl)amino]-acetamide]",0.25 to 2.5 µM,> 2.5 µM,> 2.5 µM
"CC1CC1/N=C/c1ccnc(CNCC(=O)N(C)C)c1 (stereo not drawn) [Compound 35, N,N-dimethyl-2-[({4-[N-(2-methylcyclopropyl)-carboximidoyl]pyridin-2-yl}methyl)amino]-acetamide]",0.25 to 2.5 µM,0.25 to 2.5 µM,< 0.25 µM
"CN(C)C(=O)CNCc1cc(/C=N/CCC2CCCCC2)ccn1 [Compound 36, 2-[({4-[[(2-cyclohexylethyl)imino]-methyl]pyridin-2-yl}methyl)amino]-N,N-dimethylacetamide]",0.25 to 2.5 µM,> 2.5 µM,0.25 to 2.5 µM
"CN1CCCC1CCNCc1cc(/C=N/C2CC2)ccn1 (stereo not drawn) [Compound 40, N-{[2-({[2-(l-methylpyrrolidin-2-yl)ethyl]amino}methyl)-pyridin-4-yl]methylidene}-cyclopropanamine]",> 2.5 µM,0.25 to 2.5 µM,> 2.5 µM
